Reference: article PMC6585621 (Clinical Pharmacology and Therapeutics, 2018)
Where two headings read alike, the source gives them in different places.

What was measured:
[1] = Pharmacokinetics of clopidogrel and its metabolites with and without ritonavir; format: in vivo, human; conditions: for C max / AUC0‐4h / AUC0‐∞ / t ½ / t max / AUC / half-life: after clopidogrel 300 mg oral; for C max / AUC0‐4h / AUC0‐∞ / t ½ / AUC / half-life: geometric mean (geometric CV); for t max: median (range); for AUC0‐4h, clopidogrel and ritonavir phase to clopidogrel phase ratio / AUC0‐∞, clopidogrel and ritonavir phase to clopidogrel phase ratio / C max, clopidogrel and ritonavir phase to clopidogrel phase ratio / t ½, clopidogrel and ritonavir phase to clopidogrel phase ratio: geometric mean ratio (90% CI); for half-life: t ½
[2] = tested on: carboxylesterase 1 (CES1); conditions: cited from earlier work
platelet aggregation = conditions: clopidogrel 300 mg, arithmetic mean (SD)
CYP3A4 = conditions: in the absence of ritonavir; cited from earlier work
[3] = cited from earlier work
[4] = cited from earlier work; remark: listed apart in the source
[5] = format: in vivo, human; conditions: for t ½ / t max / M1:dasabuvir AUC0‐23h ratio / M1:dasabuvir AUC0‐∞ ratio: after dasabuvir 250 mg oral; for t ½ / M1:dasabuvir AUC0‐23h ratio / M1:dasabuvir AUC0‐∞ ratio: geometric mean (geometric CV); for effect of ritonavir on pharmacokinetics compared to pretreatment with placebo: ritonavir 100 mg twice daily; for t max: median (range)
[6] = Pharmacokinetics of ritonavir with and without clopidogrel; format: in vivo, human
[7] = in humans; cited from earlier work
[8] = clopidogrel and ritonavir phase (ritonavir 100 mg twice daily)
[9] = clopidogrel and ritonavir phase

## O=C(O)[C@H]1O[C@@H](OC(=O)[C@H](c2ccccc2Cl)N2CCc3sccc3C2)[C@H](O)[C@@H](O)[C@@H]1O [Clopidogrel acyl‐β‐D‐glucuronide, clopidogrel acyl‐β‐D‐glucuronide]
[1]; [8]
  C max: 1,610 (43) ng/mL
[1]; [9]
  AUC0‐4h: 4,030 (45) ng·h/mL
  AUC0‐∞: 6,430 (46) ng·h/mL
  t ½: 2.02 (8.5) h
  t max: 1.5 (1.5–3.0) h
[1]; clopidogrel phase
  AUC0‐4h: 3,630 (56) ng·h/mL
  AUC0‐∞: 6,840 (53) ng·h/mL
  C max: 1,420 (57) ng/mL
  t ½: 2.83 (19) h
  t max: 1.75 (0.92–2.0) h
[1]
  AUC0‐4h, clopidogrel and ritonavir phase to clopidogrel phase ratio: 1.11 (0.86–1.43)
  AUC0‐∞, clopidogrel and ritonavir phase to clopidogrel phase ratio: 0.94 (0.71–1.23)
  C max, clopidogrel and ritonavir phase to clopidogrel phase ratio: 1.13 (0.86–1.47)
  t ½, clopidogrel and ritonavir phase to clopidogrel phase ratio: 0.71 (0.63–0.81); P = 0.0007

## O=C(O)[C@H](c1ccccc1Cl)N1CCc2sccc2C1 [Clopidogrel carboxylic acid, clopidogrel carboxylic acid]
[1]; [8]
  C max: 12,300 (34) ng/mL
[1]; [9]
  AUC0‐4h: 27,800 (37) ng·h/mL
  AUC0‐∞: 41,600 (37) ng·h/mL
  t ½: 2.46 (12) h
  t max: 0.92 (0.92–1.5) h
[1]; clopidogrel phase
  AUC0‐4h: 26,800 (29) ng·h/mL
  AUC0‐∞: 44,300 (26) ng·h/mL
  C max: 12,200 (22) ng/mL
  t ½: 2.98 (21) h
  t max: 0.92 (0.92–1.5) h
[1]
  AUC0‐4h, clopidogrel and ritonavir phase to clopidogrel phase ratio: 1.04 (0.91–1.18)
  AUC0‐∞, clopidogrel and ritonavir phase to clopidogrel phase ratio: 0.94 (0.80–1.10)
  C max, clopidogrel and ritonavir phase to clopidogrel phase ratio: 1.01 (0.89–1.15)
  t ½, clopidogrel and ritonavir phase to clopidogrel phase ratio: 0.83 (0.72–0.95); P = 0.03

## COC(=O)[C@H](c1ccccc1Cl)N1CCc2sccc2C1 [Clopidogrel, clopidogrel, reference compound]
[2]
  fraction hydrolyzed by CES1 to inactive carboxylic acid metabolite: About 90%
[1]
  AUC0‐4h, clopidogrel and ritonavir phase to clopidogrel phase ratio: 0.75 (0.40–1.44)
  AUC0‐∞, clopidogrel and ritonavir phase to clopidogrel phase ratio: 0.75 (0.39–1.43)
  C max, clopidogrel and ritonavir phase to clopidogrel phase ratio: 0.79 (0.40–1.57)
  t ½, clopidogrel and ritonavir phase to clopidogrel phase ratio: 0.89 (0.72–1.11)
[1]; human, plasma, po, 300 mg
  Cmax: 4.49 ng/mL
[1]; human, plasma, po, 300 mg, AUC0‐4h, clopidogrel and ritonavir phase
  AUC: 6.44 ng·h/mL
[1]; human, plasma, po, 300 mg, AUC0‐4h, clopidogrel phase
  AUC: 8.53 ng·h/mL
[1]; human, plasma, po, 300 mg, AUC0‐∞, clopidogrel and ritonavir phase
  AUC: 8.14 ng·h/mL
[1]; human, plasma, po, 300 mg, AUC0‐∞, clopidogrel phase
  AUC: 10.8 ng·h/mL
[1]; human, plasma, po, 300 mg, clopidogrel and ritonavir phase
  half-life: 1.77 h
[1]; human, plasma, po, 300 mg, clopidogrel phase
  half-life: 1.98 h
Platelet aggregation; [9]
  Inhibition of platelet aggregation, average inhibition at 0‐24 h: 31 (28) %
  Inhibition of platelet aggregation, maximal inhibition: 40 (29) %
Platelet aggregation; clopidogrel phase
  Inhibition of platelet aggregation, average inhibition at 0‐24 h: 51 (24) %
  Inhibition of platelet aggregation, maximal inhibition: 60 (23) %

## COc1c(-c2ccc3cc(NS(C)(=O)=O)ccc3c2)cc(-n2ccc(=O)[nH]c2=O)cc1C(C)(C)C [Dasabuvir, dasabuvir, reference compound]
CYP3A4
  share of overall metabolism for which CYP3A4 is responsible: about 30%
[3]
  PBPK-predicted increase of AUC by clopidogrel: 1.9–2.8 fold
  implied reduction in clearance by clopidogrel (PBPK prediction): 47–64%
[4]; humans
  prolongation of half‐life (t ½) by concomitant gemfibrozil: 18 fold
[4]; humans, during ritonavir coadministration
  increase of AUC by concomitant gemfibrozil: 11 fold
[4]; in the presence of the CYP3A4 inhibitor ritonavir
  fraction metabolized by CYP2C8: > 0.9
[5]; 12 subjects
  highest individual increase in AUC0‐∞, clopidogrel phase vs placebo phase: > 10 fold
[5]; 12 subjects, clopidogrel phase vs placebo phase
  range of individual increases of AUC0‐∞ by clopidogrel compared with placebo: 2.0–10.1 fold
[5]; ritonavir phase
  t ½: 8.22 (25) h
[5]; geometric mean
  AUC0‐∞ in clopidogrel phase as % of that during placebo: 467%
  AUC0‐∞ in clopidogrel–ritonavir phase as % of that during the ritonavir phase: 389%
  C max in clopidogrel–ritonavir phase as % of that during the ritonavir phase: 182%
[5]; geometric mean ratio (90% CI)
  AUC0‐23h, clopidogrel and ritonavir phase to ritonavir phase ratio: 3.13 (2.17–4.52) P = 0.00002
  AUC0‐∞, clopidogrel phase to placebo phase ratio: 4.67 (3.23–6.74) P = 8·10^−7
  C max, clopidogrel and ritonavir phase to ritonavir phase ratio: 1.82 (1.27–2.61) P = 0.004
  C max, clopidogrel phase to placebo phase ratio: 1.63 (1.03–2.57) P = 0.07
  t ½, clopidogrel and ritonavir phase to ritonavir phase ratio: 1.40 (1.14–1.73) P = 0.005
  t ½, clopidogrel phase to placebo phase ratio: 1.84 (1.59–2.13) P = 1·10^−6
[5]; implied from clopidogrel interaction, both with and without ritonavir
  contribution of CYP2C8 to metabolism: exceed 80%
[5]
  effect of ritonavir on pharmacokinetics compared to pretreatment with placebo: did not cause significant changes
[5]; statistically insignificant
  trend of lower concentrations in the ritonavir phase than in the placebo phase: –20%

## COc1c(-c2ccc3cc(NS(C)(=O)=O)ccc3c2)cc(-n2ccc(=O)[nH]c2=O)cc1C(C)(C)CO [M1]
[5]; [9]
  t max: 4.0 (3.0–23) h
[5]; clopidogrel phase
  M1:dasabuvir AUC0‐23h ratio: 0.0102 (42)
  M1:dasabuvir AUC0‐∞ ratio: 0.0135 (32)
  t ½: 17.3 (23) h
  t max: 4.0 (3.0–23) h
[5]; placebo phase
  M1:dasabuvir AUC0‐23h ratio: 0.0795 (28)
  M1:dasabuvir AUC0‐∞ ratio: 0.0774 (29)
  t ½: 7.87 (32) h
  t max: 4.0 (2.0–4.0) h
[5]; ritonavir phase
  M1:dasabuvir AUC0‐23h ratio: 0.0888 (35)
  M1:dasabuvir AUC0‐∞ ratio: 0.0786 (38)
  t ½: 7.35 (25) h
  t max: 4.0 (3.0–6.0) h
[5]; geometric mean
  AUC0‐23h in clopidogrel phase as % of that during placebo phase: 41%
  AUC0‐23h in clopidogrel–ritonavir phase as % of that during the ritonavir phase: 48%
  C max in clopidogrel phase as % of that in the placebo phase: 20%
  C max in clopidogrel–ritonavir phase as % of that during the ritonavir phase: 22%
  M1:dasabuvir AUC0‐∞ ratio in clopidogrel phase as % of that with placebo: 17%
[5]; geometric mean ratio (90% CI)
  AUC0‐23h, clopidogrel and ritonavir phase to ritonavir phase ratio: 0.48 (0.32–0.71) P = 0.002
  AUC0‐23h, clopidogrel phase to placebo phase ratio: 0.41 (0.26–0.65) P = 0.001
  C max, clopidogrel and ritonavir phase to ritonavir phase ratio: 0.22 (0.13–0.36) P = 0.00002
  C max, clopidogrel phase to placebo phase ratio: 0.20 (0.11–0.36) P = 0.00006
  M1:dasabuvir AUC0‐23h ratio, clopidogrel and ritonavir phase to ritonavir phase ratio: 0.14 (0.12–0.17) P = 5·10^−11
  M1:dasabuvir AUC0‐23h ratio, clopidogrel phase to placebo phase ratio: 0.13 (0.11–0.15) P = 5·10^−12
  M1:dasabuvir AUC0‐∞ ratio, clopidogrel and ritonavir phase to ritonavir phase ratio: 0.20 (0.17–0.25) P = 5·10^−10
  M1:dasabuvir AUC0‐∞ ratio, clopidogrel phase to placebo phase ratio: 0.17 (0.16–0.19) P = 2·10^−14
  t ½, clopidogrel and ritonavir phase to ritonavir phase ratio: 1.92 (1.57–2.34) P = 0.00001
  t ½, clopidogrel phase to placebo phase ratio: 2.20 (1.72–2.81) P = 0.00001
[5]
  effect of ritonavir on pharmacokinetics compared to pretreatment with placebo: did not cause significant changes

## CC(C)c1nc(CN(C)C(=O)N[C@H](C(=O)N[C@@H](Cc2ccccc2)C[C@H](O)[C@H](Cc2ccccc2)NC(=O)OCc2cncs2)C(C)C)cs1 [Ritonavir, ritonavir]
[6]; clopidogrel and ritonavir phase, median (range)
  t max: 3.0 h
[6]; geometric mean
  t ½ during coadministration of clopidogrel as % of that in the ritonavir phase: 112%
[6]; human, plasma, oral
  t max: 1.75 h

## CC(C)(O)c1ccccc1CC[C@@H](SCC1(CC(=O)O)CC1)c1cccc(/C=C/c2ccc3ccc(Cl)cc3n2)c1 [montelukast]
[4]
  increase of AUC of CYP2C8 substrate by gemfibrozil: ~4.5 fold

## CCc1ccc(CCOc2ccc(CC3SC(=O)NC3=O)cc2)nc1 (centres unmarked) [pioglitazone]
[4]
  increase of AUC of CYP2C8 substrate by gemfibrozil: about 3 fold

## O=C(O)C[C@H](O)C[C@H](O)/C=C/c1c(C2CC2)nc2ccccc2c1-c1ccc(F)cc1 [pitavastatin]
[7]
  effect of clopidogrel on pharmacokinetics: not affected

## CCOc1cc(CC(=O)N[C@@H](CC(C)C)c2ccccc2N2CCCCC2)ccc1C(=O)O [repaglinide]
[4]
  increase of AUC of CYP2C8 substrate by gemfibrozil: ~8 fold
